{
  "source": "patent US20240173327A1",
  "about": "“NEW TREATMENT” (Verona Pharma PLC, priority 2022, published 2024)",
  "system": "patients aged 40-80 years with moderate to severe COPD",
  "test": "Multi-centre, randomized, double-blind, placebo-controlled clinical study of nebulised ensifentrine in COPD (FEV1 spirometry)",
  "type": "in vivo",
  "settings": "for Average change in baseline FEV1 (AUC)0-12 h at Week 12: 3 mg BID by nebuliser",
  "description": "A clinical study was conducted to determine the efficacy of ensifentrine in treating COPD compared with placebo. Ensifentrine was administered by nebuliser at a dose of 3 mg twice daily (BID) for 24 weeks. The study was a multi-centre, randomized, double-blind, parallel-group, placebo-controlled trial with around 800 patients and 5:3 randomization.\nThe study population included patients aged 40-80 years with moderate to severe COPD (FEV1 30%-70% p.n., FEV1/forced vital capacity (FVC) ratio <0.7, with mMRC≥2). The randomization stratified (a) the use of stable background maintenance LAMA or LABA therapy use (approx. 50%. yes or no) and (b) cigarette smoking (current or former). Inhaled corticosteroid (ICS) maintenance therapy was permitted in up to 20% of patients under certain provisions.\nThe primary endpoint of the study was change from baseline in average FEV1 area under the curve (AUC)0-12 h post-dose at week 12. Secondary endpoints of the study included: peak FEV1 over 4 hours post-dose at Week 12; morning trough FEV1 at Week 12; and other endpoints including moderate/severe COPD exacerbations frequency over 24 Weeks.\nCOPD severity is derived as follows: mild: 80%<=FEV1, moderate: 50%<=FEV1<80% predicted, severe: 30%<=FEV1<50% predicted and very severe: FEV1<30% predicted, post bronchodilator dose at Screening.\nBaseline FEV1 is the mean of the two measurements taken before study medication on the day of first dosing, i.e. ≤40 minutes and just prior to dosing, both pre-dose on day 1.\nAverage FEV1 AUC0-12 h is defined as area under the curve over 12 hours of the FEV1, divided by 12 hours.\nThe investigational product and placebo were provided in 2.5 mL unit dose format in an ampule and administered via a nebuliser.",
  "data": [
    {"smiles": "COc1cc2c(cc1OC)-c1c/c(=N\\c3c(C)cc(C)cc3C)n(CCNC(N)=O)c(=O)n1CC2", "note": "[Ensifentrine, N-(2-{(2E)-9,10-dimethoxy-4-oxo-2-[(2,4,6-trimethylphenyl)imino]-6,7-dihydro-2H-pyrimido[6,1-a]isoquinolin-3(4H)-yl}ethyl)urea]", "values": [
      {"measurement": "Improvement in lung function", "setting": "all subgroups of COPD patients in the study", "value": "statistically significant"},
      {"measurement": "Improving lung function in moderate COPD", "setting": "moderate COPD patients", "value": "particularly effective"},
      {"measurement": "Average change in baseline FEV1 (AUC)0-12 h at Week 12", "setting": "patients with moderate COPD", "value": 139, "unit": "mL"},
      {"measurement": "Average change in baseline FEV1 (AUC)0-12 h at Week 12", "setting": "patients with severe COPD", "value": 45, "unit": "mL"}
    ]}
  ]
}
